Measured values published in ChEMBL document CHEMBL1149987, “Synthesis and biological evaluation of new arachidonic acid analogs” (Bioorg Med Chem Lett, 1994).
pIC50: −log10 of the molar value.

Columns and labels:
[1] = target: T1, Polyunsaturated fatty acid 5-lipoxygenase (Homo sapiens, UniProt P09917); assay: Compound was tested for the inhibition of 5-lipoxygenase of human PMN stimulated by calcium ionophore A-23187 for the formation of 5-HETE
T1 sequence (P09917 whole entry): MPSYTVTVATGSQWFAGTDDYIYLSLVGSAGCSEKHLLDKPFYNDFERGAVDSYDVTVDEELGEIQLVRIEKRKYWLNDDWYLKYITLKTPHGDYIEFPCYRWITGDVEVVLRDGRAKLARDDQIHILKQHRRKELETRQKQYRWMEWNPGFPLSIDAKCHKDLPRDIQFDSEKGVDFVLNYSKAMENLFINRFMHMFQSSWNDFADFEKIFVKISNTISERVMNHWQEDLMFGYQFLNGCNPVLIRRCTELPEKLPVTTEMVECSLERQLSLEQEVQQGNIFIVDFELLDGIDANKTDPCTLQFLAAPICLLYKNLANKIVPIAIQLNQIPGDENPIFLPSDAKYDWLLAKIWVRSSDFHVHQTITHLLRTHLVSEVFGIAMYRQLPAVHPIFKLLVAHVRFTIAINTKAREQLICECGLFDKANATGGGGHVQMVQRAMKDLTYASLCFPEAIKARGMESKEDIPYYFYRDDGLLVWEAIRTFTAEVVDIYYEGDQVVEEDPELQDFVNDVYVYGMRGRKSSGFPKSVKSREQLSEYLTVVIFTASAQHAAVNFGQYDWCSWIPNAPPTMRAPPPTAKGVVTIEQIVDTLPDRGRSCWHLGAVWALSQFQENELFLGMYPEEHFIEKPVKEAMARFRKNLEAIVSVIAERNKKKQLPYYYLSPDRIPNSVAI

[2] = target: T1, Polyunsaturated fatty acid 5-lipoxygenase; assay: Compound was tested for the inhibition of 5-lipoxygenase of human PMN stimulated by calcium ionophore A-23187 for the formation of leukotriene B4 (LTB4)

pIC50 [1]	pIC50 [2]	Compound
6.00	5.80	CCCCC/C=C\C/C=C\[C@@H]1CC(C)=C(C)C[C@H]1/C=C\C/C=C\CCCC(=O)O
5.54	5.55	CCCCC/C=C\C/C=C\[C@@H]1C[C@H]1/C=C\C/C=C\CCCC(=O)O (stereo in doubt; (+)-7a)
5.77	5.62	CCCCC/C=C\C/C=C\[C@@H]1C[C@H]1/C=C\C/C=C\CCCC(=O)O (stereo in doubt; (-)-7a)
5.96	5.72	CCCCC/C=C\C/C=C\[C@H]1CC(C)=C(C)C[C@H]1/C=C\C/C=C\CCCC(=O)O
